Data reported in US20260091050A1, “ADVANTAGEOUS ANTI-HCV COMBINATION THERAPY” (Atea Pharmaceuticals, Inc., priority 2021, published 2026).

Assay: Stability under refrigerator conditions (5 ± 3° C.) of Compound 1-A over 9 months
Format: physicochemical
Description: Three conditions were tested: accelerated stability (40±2° C./[…]) over a 6-month time period, ambient stability (25±2° C./[…]) over a 9-month period, and stability under refrigerator conditions (5±3° C.) over a 9-month time period. The results for accelerated stability, ambient stability, and refrigerator conditions are shown in Table 23, Table 24, and Table 25, respectively.

CNc1nc(N)nc2c1ncn2[C@@H]1O[C@H](CO[P@@](=O)(N[C@@H](C)C(=O)OC(C)C)Oc2ccccc2)[C@@H](O)[C@@]1(C)F [Compound 1-A, isopropyl ((S)-(((2R,3R,4R,5R)-5-(2-amino-6-(methylamino)-9H-purin-9-yl)-4-fluoro-3-hydroxy-4-methyltetrahydrofuran-2-yl)methoxy) (phenoxy)phosphoryl)-L-alaninate hemisulfate]
Appearance (5 ± 3° C., 0 month): White
Assay (5 ± 3° C., 0 month): 98.8%
IR (5 ± 3° C., 0 month): correspond
Related Substance 1 Any other single impurity (5 ± 3° C., 0 month): 0.01%
Related Substance 1 Total Impurities (5 ± 3° C., 0 month): 0.01%
Water (5 ± 3° C., 0 month): 0.45%
Appearance (5 ± 3° C., 1st month): White
Assay (5 ± 3° C., 1st month): 101.1%
Related Substance 1 Any other single impurity (5 ± 3° C., 1st month): 0.01%
Related Substance 1 Total Impurities (5 ± 3° C., 1st month): 0.01%
Water (5 ± 3° C., 1st month): 0.19%
Appearance (5 ± 3° C., 3rd month): White
Assay (5 ± 3° C., 3rd month): 100.2%
IR (5 ± 3° C., 3rd month): correspond
Related Substance 1 Any other single impurity (5 ± 3° C., 3rd month): 0.01%
Related Substance 1 Impurity B (5 ± 3° C., 3rd month): 0.01%
Related Substance 1 Total Impurities (5 ± 3° C., 3rd month): 0.03%
Water (5 ± 3° C., 3rd month): 0.32%
Appearance (5 ± 3° C., 6th month): White
Assay (5 ± 3° C., 6th month): 98.6%
IR (5 ± 3° C., 6th month): correspond
Related Substance 1 Any other single impurity (5 ± 3° C., 6th month): 0.01%
Related Substance 1 Total Impurities (5 ± 3° C., 6th month): 0.03%
Water (5 ± 3° C., 6th month): 0.42%
Appearance (5 ± 3° C., 9th month): Off-white
Assay (5 ± 3° C., 9th month): 101.4%
IR (5 ± 3° C., 9th month): correspond
Related Substance 1 Any other single impurity (5 ± 3° C., 9th month): 0.01%
Related Substance 1 Total Impurities (5 ± 3° C., 9th month): 0.01%
Water (5 ± 3° C., 9th month): 0.32%
total impurities of related substance 1 (after 9 months): 0.0100
water content (after 9 months): 0.3200
Chemical stability (conclusion) (refrigerator conditions): very chemically stable
